Tested on: U937 (N-Ras WT)
Assay: Proliferation inhibitory activity, U937
Assay type: cell-based
Settings: Homo sapiens, U-937; U937 (N-Ras WT) cell line; read-out: Proliferation inhibitory efficacy (GI50, μM) U937 (N-Ras WT)
Method: GI50 values were calculated by measuring the proliferation inhibitory efficacy of the compounds of the present invention on mt-NRAS (G12D) Ba/F3, U937 (wt-NRAS) and OCI-AML3 (mt-NRAS) cell lines.

Compound: CCN1CCN(C(=O)c2ccc(Nc3ncc4c(n3)N(C)C(=O)N(c3cc(NC(=O)Nc5ccccc5OC)ccc3C)C4)cn2)CC1 [Compound No. 14, 1-(3-(7-((6-(4-ethylpiperazin-1-carbonyl)pyridin-3-yl)amino)-1-methyl-2-oxo-1,4-dihydropyrimido[4,5-d]pyrimidin-3(2H)-yl)-4-methylphenyl)-3-(2-methoxyphenyl)urea]
- GI50: ≥ 5 µM
